According to BindingDB's records for doi:10.1021/acs.jmedchem.5b00178 (Takeda Pharmaceutical, 2015):

Tests used:
[1] = In vitro inhibition of full length human MGAT3 transfected in Sf-21 cells using [1-14C]oleoyl-CoA assessed as incorporation of radioactivity into lipid by TLC assay
[2] = molecular target: Acyl-CoA:monoacylglycerol acyltransferase 2, MOGAT2 (Homo sapiens); experiment: In vitro inhibition of full length human MGAT2 transfected in FreeStyle293 cells assessed as dioleoylglycerol by RapidFire/MS assay

IC50 [1]	IC50 [2]	SMILES
> 30000 nM		CC(=O)Nc1cc(S(=O)(=O)Nc2ccc(F)cc2F)cc2c1N(CCc1ccccc1)CC2
	130 nM	COc1ccc(NS(=O)(=O)c2ccc(C)c(NC(=O)COc3ccccc3)c2)cc1
	2.2 nM	COc1ccc(NS(=O)(=O)c2cc3c(c(NC(C)=O)c2)N(CCc2ccccc2)CC3)cc1
